ChEMBL document CHEMBL4219254, “Harnessing biosynthesis and quantitative NMR for late stage functionalization of lead molecules: Application to the M1 positive allosteric modulator (PAM) program” (Bioorg Med Chem Lett, 2018)

Legend:
[1] = Permeability in RRCK cells; format: ADME, cell-based, Canis lupus familiaris, MDCKII-LE; settings: dog, MDCK; read-out: permeability
[2] = Drug level in hamster liver microsomes treated with N-((3R,4S)-3-hydroxytetrahydro-2H-pyran-4-yl)-1-(4-(1-methyl-1H-pyrazol-3-yl)benzyl)-1H-pyrrolo[3,2-b]pyridine-3-carboxamide at 20 uM by UHPLC-UV-HRMS analysis; format: ADME, microsome; settings: cricetinae
[3] = Drug metabolism in dexamethasone-induced rat liver microsomes assessed as formation of N-((3R,4S)-2,3-dihydroxytetrahydro-2H-pyran-4-yl)-5-methyl-4-(4-(thiazol-4-yl)benzyl)picolinamide at 20 uM after 60 mins by UHPLC-UV-HRMS analysis; format: ADME, microsome; settings: 1 h
[4] = Drug metabolism in dexamethasone-induced rat liver microsomes assessed as formation of 4-(hydroxy(4-(thiazol-4-yl)phenyl)methyl)-N-((3R,4S)-3-hydroxytetrahydro-2H-pyran-4-yl)-5-methylpicolinamide at 20 uM after 60 mins by UHPLC-UV-HRMS analysis; format: ADME, microsome; settings: 1 h
[5] = Drug level in rat liver microsomes treated with N-((3R,4S)-3-hydroxytetrahydro-2H-pyran-4-yl)-5-methyl-1-(4-(1-methyl-1H-pyrazol-3-yl)benzyl)-1H-pyrrolo[3,2-b]pyridine-3-carboxamide at 20 uM after 70 mins by UHPLC-UV-HRMS analysis; format: ADME, microsome
[6] = target: T1, Muscarinic acetylcholine receptor M1 (Homo sapiens, UniProt P11229); assay: Positive allosteric modulation of human muscarinic M1 receptor expressed in CHO cells assessed as increase in ACh-induced intracellular calcium level preincubated for 10 mins followed by ACh addition measured every 2 secs for 80 secs by Fluo-4 dye-based FLIPR assay; format: functional, cell-based
T1 sequence (P11229 whole entry): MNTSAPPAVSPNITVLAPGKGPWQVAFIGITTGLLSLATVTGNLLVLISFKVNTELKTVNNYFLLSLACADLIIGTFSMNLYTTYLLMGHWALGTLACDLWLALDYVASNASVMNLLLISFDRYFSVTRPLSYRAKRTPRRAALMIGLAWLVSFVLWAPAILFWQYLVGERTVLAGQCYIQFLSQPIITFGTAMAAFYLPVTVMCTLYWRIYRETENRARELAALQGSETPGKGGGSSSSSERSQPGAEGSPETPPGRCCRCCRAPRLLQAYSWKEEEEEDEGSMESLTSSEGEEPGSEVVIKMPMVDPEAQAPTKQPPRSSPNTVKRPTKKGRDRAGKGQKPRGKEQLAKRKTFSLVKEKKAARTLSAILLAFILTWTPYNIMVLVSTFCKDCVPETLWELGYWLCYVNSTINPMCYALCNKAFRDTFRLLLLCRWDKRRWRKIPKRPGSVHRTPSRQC

[7] = Intrinsic clearance in human liver microsomes; format: ADME, microsome; settings: read-out: CLH
MDR1 = assay: Efflux ratio of permeability in MDCK cells expressing MDR1; format: ADME, cell-based, Canis lupus familiaris; settings: dog
[8] = Drug level in rabbit liver microsomes treated with 4-(4-(1H-pyrazol-1-yl)benzyl)-N-((3R,4S)-3-hydroxytetrahydro-2H-pyran-4-yl)-5-methylpicolinamide at 20 uM after 60 mins by UHPLC-UV-HRMS analysis; format: ADME, Oryctolagus cuniculus, microsome
[9] = Drug level in guinea pig liver microsomes treated with 1-(4-(1H-pyrazol-1-yl)benzyl)-N-((1S,2S)-2-hydroxycyclohexyl)-1H-pyrrolo[3,2-b]pyridine-3-carboxamide at 20 uM after 75 mins by UHPLC-UV-HRMS analysis; format: ADME, Cavia porcellus, microsome; settings: 1.25 h
[10] = Drug level in rabbit liver microsomes treated with 5-(4-(1H-pyrazol-1-yl)benzyl)-N-((1S,2S)-2-hydroxycyclohexyl)-1,6-dimethyl-2-oxo-1,2-dihydropyridine-3-carboxamide at 20 uM after 60 mins by UHPLC-UV-HRMS analysis; format: ADME, Oryctolagus cuniculus, microsome
[11] = Drug metabolism in rabbit liver microsomes assessed as formation of 5-(4-(1H-pyrazol-1-yl)benzyl)-N-((1S,2S)-2,4-dihydroxycyclohexyl)-6-(hydroxymethyl)-1-methyl-2-oxo-1,2-dihydropyridine-3-carboxamide at 20 uM after 60 mins by UHPLC-UV-HRMS analysis; format: ADME, Oryctolagus cuniculus, microsome
[12] = Drug metabolism in rabbit liver microsomes assessed as formation of 5-(4-(1H-pyrazol-1-yl)benzyl)-N-((1S,2S)-2,5-dihydroxycyclohexyl)-6-methyl-2-oxo-1,2-dihydropyridine-3-carboxamide at 20 uM after 60 mins by UHPLC-UV-HRMS analysis; format: ADME, Oryctolagus cuniculus, microsome
[13] = Drug metabolism in rabbit liver microsomes assessed as formation of 5-(4-(1H-pyrazol-1-yl)benzyl)-N-((1S,2S)-2,4-dihydroxycyclohexyl)-1,6-dimethyl-2-oxo-1,2-dihydropyridine-3-carboxamide at 20 uM after 60 mins by UHPLC-UV-HRMS analysis; format: ADME, Oryctolagus cuniculus, microsome
[14] = Drug metabolism in rabbit liver microsomes assessed as formation of 5-(4-(1H-pyrazol-1-yl)benzyl)-N-((1S,2S)-2-hydroxycyclohexyl)-6-(hydroxymethyl)-1-methyl-2-oxo-1,2-dihydropyridine-3-carboxamide at 20 uM after 60 mins by UHPLC-UV-HRMS analysis; format: ADME, Oryctolagus cuniculus, microsome
[15] = Drug level in dexamethasone-induced rat liver microsomes treated with N-((3R,4S)-3-hydroxytetrahydro-2H-pyran-4-yl)-5-methyl-4-(4-(thiazol-4-yl)benzyl)picolinamide at 20 uM after 60 mins by UHPLC-UV-HRMS analysis; format: ADME, microsome; settings: 1 h
[16] = Drug metabolism in rabbit liver microsomes assessed as formation of 4-(4-(1H-pyrazol-1-yl)benzyl)-5-(hydroxymethyl)-N-((3R,4S)-3-hydroxytetrahydro-2H-pyran-4-yl)picolinamide at 20 uM after 60 mins by UHPLC-UV-HRMS analysis; format: ADME, Oryctolagus cuniculus, microsome
[17] = Drug metabolism in rabbit liver microsomes assessed as formation of 4-((4-(1H-pyrazol-1-yl)phenyl)(hydroxy)methyl)-N-((3R,4S)-3-hydroxytetrahydro-2H-pyran-4-yl)-5-methylpicolinamide at 20 uM after 60 mins by UHPLC-UV-HRMS analysis; format: ADME, Oryctolagus cuniculus, microsome
[18] = Drug metabolism in rabbit liver microsomes assessed as formation of 4-(4-(1H-pyrazol-1-yl)benzyl)-5-methyl-N-((2R,3S)-1,2,5-trihydroxypentan-3-yl)picolinamide at 20 uM after 60 mins by UHPLC-UV-HRMS analysis; format: ADME, Oryctolagus cuniculus, microsome
[19] = Drug metabolism in rabbit liver microsomes assessed as formation of 4-(4-(4-hydroxy-1H-pyrazol-1-yl)benzyl)-N-((3R,4S)-3-hydroxytetrahydro-2H-pyran-4-yl)-5-methylpicolinamide at 20 uM after 60 mins by UHPLC-UV-HRMS analysis; format: ADME, Oryctolagus cuniculus, microsome
[20] = Drug metabolism in rabbit liver microsomes assessed as formation of 4-(4-(1H-pyrazol-1-yl)benzyl)-N-((3R,4S)-2,3-dihydroxytetrahydro-2H-pyran-4-yl)-5-methylpicolinamide at 20 uM after 60 mins by UHPLC-UV-HRMS analysis; format: ADME, Oryctolagus cuniculus, microsome
[21] = Drug metabolism in rabbit liver microsomes assessed as formation of 4-(4-(1H-pyrazol-1-yl)benzyl)-N-((4S,5R)-2,5-dihydroxytetrahydro-2H-pyran-4-yl)-5-methylpicolinamide at 20 uM after 60 mins by UHPLC-UV-HRMS analysis; format: ADME, Oryctolagus cuniculus, microsome

Cc1ccc2c(n1)c(C(=O)N[C@H]1CCOC[C@@H]1O)cn2Cc1ccc(-c2ccn(C)n2)cc1
Papp [1]: 21 ×10⁻⁶ cm/s

O=C(N[C@H]1CCCC[C@@H]1O)c1cn(Cc2ccc(-n3cccn3)cc2)c2cccnc12
Papp [1]: 16.2 ×10⁻⁶ cm/s

O=C(N[C@H]1CCOC[C@@H]1O)c1cn(Cc2ccc(-c3cc[nH]n3)cc2)c2cccnc12
Drug metabolism [2]: Metabolite_Detected

Cc1cnc(C(=O)N[C@H]2CCOC[C@@H]2O)cc1Cc1ccc(-c2cscn2)cc1
Drug metabolism [3]: Metabolite_Detected
Drug metabolism [4]: Metabolite_Detected

Cn1ccc(-c2ccc(Cn3cc(C(=O)N[C@H]4CCOC[C@@H]4O)c4nc(CO)ccc43)cc2)n1
Drug metabolism [5]: Metabolite_Detected
EC50 [6]: 99 nM

O=C(N[C@H]1CCOC[C@@H]1O)c1cc(Cc2ccc(-n3cccn3)cc2)c(CO)cn1
CLint scaled [7]: < 8 mL/min/kg
efflux ratio (MDR1): 15.9
EC50 [6]: 338 nM
Papp [1]: 4.6 ×10⁻⁶ cm/s
Drug metabolism [8]: Metabolite_Detected

Cn1ccc(-c2ccc(Cn3cc(C(=O)N[C@H]4CC(O)OC[C@@H]4O)c4ncccc43)cc2)n1 (some centres not stated)
EC50 [6]: > 207 nM
Drug metabolism [2]: Metabolite_Detected

Cn1ccc(-c2ccc(Cn3cc(C(=O)N[C@H]4CCOC[C@@H]4O)c4nc(C=O)ccc43)cc2)n1
Drug metabolism [5]: Metabolite_Detected
EC50 [6]: 184 nM

O=C(N[C@H]1CCCC[C@@H]1O)c1cn(Cc2ccc([N+]3([O-])C=CC=N3)cc2)c2cccnc12 (some centres not stated)
EC50 [6]: 34 nM
Drug metabolism [9]: Metabolite_Detected

Cc1cnc(C(=O)N[C@H]2CCOC[C@@H]2O)cc1Cc1ccc(-n2cc(O)cn2)cc1
EC50 [6]: 70 nM
Drug metabolism [8]: Metabolite_Detected

Cn1c(CO)c(Cc2ccc(-n3cccn3)cc2)cc(C(=O)N[C@H]2CCCC[C@@H]2O)c1=O
Drug metabolism [10]: Metabolite_Detected
EC50 [6]: 40 nM

Cc1c(Cc2ccc(-n3cccn3)cc2)cc(C(=O)N[C@H]2CCCC[C@@H]2O)c(=O)n1C
efflux ratio (MDR1): 2.7
Drug metabolism [11]: Metabolite_Detected
Drug metabolism [12]: Metabolite_Detected
Drug metabolism [13]: Metabolite_Detected
Drug metabolism [14]: Metabolite_Detected

Cc1cnc(C(=O)N[C@H]2CC(O)OC[C@@H]2O)cc1Cc1ccc(-n2cccn2)cc1 (some centres not stated)
EC50 [6]: > 3000 nM
Drug metabolism [8]: Metabolite_Detected

Cc1cnc(C(=O)N[C@H]2CCOC(O)[C@@H]2O)cc1Cc1ccc(-n2cccn2)cc1 (some centres not stated)
EC50 [6]: 511 nM
Drug metabolism [8]: Metabolite_Detected

Cc1cnc(C(=O)N[C@@H](CCO)[C@@H](O)CO)cc1Cc1ccc(-n2cccn2)cc1
EC50 [6]: > 300 nM
Drug metabolism [8]: Metabolite_Detected

O=C(N[C@H]1CC(O)CC[C@@H]1O)c1cn(Cc2ccc(-n3cccn3)cc2)c2cccnc12 (some centres not stated)
EC50 [6]: > 72 nM
Drug metabolism [9]: Metabolite_Detected

Cc1cnc(C(=O)N[C@H]2CCOC(O)[C@@H]2O)cc1Cc1ccc(-c2cscn2)cc1 (some centres not stated)
EC50 [6]: 162 nM
Drug metabolism [15]: Metabolite_Detected

Cc1c(Cc2ccc(-n3cccn3)cc2)cc(C(=O)N[C@H]2CCC(O)C[C@@H]2O)c(=O)n1C (some centres not stated)
Drug metabolism [10]: Metabolite_Detected
EC50 [6]: 63 nM

Cc1[nH]c(=O)c(C(=O)N[C@H]2CC(O)CC[C@@H]2O)cc1Cc1ccc(-n2cccn2)cc1 (some centres not stated)
Drug metabolism [10]: Metabolite_Detected
EC50 [6]: 12 nM

O=C(N[C@H]1C(O)CCC[C@@H]1O)c1cn(Cc2ccc(-n3cccn3)cc2)c2cccnc12 (some centres not stated)
EC50 [6]: > 249 nM
Drug metabolism [9]: Metabolite_Detected

Cc1cnc(C(=O)N[C@H]2CCOC[C@@H]2O)cc1Cc1ccc(-n2cccn2)cc1
Drug metabolism [16]: Metabolite_Detected
Drug metabolism [17]: Metabolite_Detected
Drug metabolism [18]: Metabolite_Detected
Drug metabolism [19]: Metabolite_Detected
Drug metabolism [20]: Metabolite_Detected
Drug metabolism [21]: Metabolite_Detected

Cn1c(CO)c(Cc2ccc(-n3cccn3)cc2)cc(C(=O)N[C@H]2CCC(O)C[C@@H]2O)c1=O (some centres not stated)
Drug metabolism [10]: Metabolite_Detected
EC50 [6]: 177 nM

Cn1ccc(-c2ccc(Cn3cc(C(=O)N[C@H]4CCOC(O)[C@@H]4O)c4ncccc43)cc2)n1 (some centres not stated)
EC50 [6]: > 257 nM
Drug metabolism [2]: Metabolite_Detected

Cc1cnc(C(=O)N[C@H]2CCOC[C@@H]2O)cc1C(O)c1ccc(-n2cccn2)cc1 (stereo in doubt; 11a)
EC50 [6]: > 1000 nM
Drug metabolism [8]: Metabolite_Detected

Cc1cnc(C(=O)N[C@H]2CCOC[C@@H]2O)cc1C(O)c1ccc(-n2cccn2)cc1 (stereo in doubt; 11b)
EC50 ([6]; cho): > 1000 nM

Cc1cnc(C(=O)N[C@H]2CCOC[C@@H]2O)cc1C(O)c1ccc(-c2cscn2)cc1 (stereo in doubt; 14a)
EC50 [6]: > 4150 nM
Drug metabolism [15]: Metabolite_Detected

Cc1cnc(C(=O)N[C@H]2CCOC[C@@H]2O)cc1C(O)c1ccc(-c2cscn2)cc1 (stereo in doubt; 14b)
EC50 [6]: > 1100 nM

O=C(N[C@H]1CCC(O)C[C@@H]1O)c1cn(Cc2ccc(-n3cccn3)cc2)c2cccnc12 (stereo in doubt; 20a)
EC50 [6]: 167 nM
Drug metabolism [9]: Metabolite_Detected

O=C(N[C@H]1CCC(O)C[C@@H]1O)c1cn(Cc2ccc(-n3cccn3)cc2)c2cccnc12 (stereo in doubt; 20b)
EC50 [6]: 16 nM
